Assay results reported in patent publication US6605639B1, “Ligands of nuclear receptor” (Nuclear Receptor Research, Ltd., priority 1998, dated 2003).

Columns and labels:
[1] = biological target: T1, RAR (Homo sapiens, UniProt P10276); assay: RAR reporter gene (luciferase) transfer assay in COS-1 cells; assay type: cell-based; conditions: control lot = 1
T1 construct: expressed in transfected cells; host or cells: COS-1 cells
T1 sequence (P10276 1-462): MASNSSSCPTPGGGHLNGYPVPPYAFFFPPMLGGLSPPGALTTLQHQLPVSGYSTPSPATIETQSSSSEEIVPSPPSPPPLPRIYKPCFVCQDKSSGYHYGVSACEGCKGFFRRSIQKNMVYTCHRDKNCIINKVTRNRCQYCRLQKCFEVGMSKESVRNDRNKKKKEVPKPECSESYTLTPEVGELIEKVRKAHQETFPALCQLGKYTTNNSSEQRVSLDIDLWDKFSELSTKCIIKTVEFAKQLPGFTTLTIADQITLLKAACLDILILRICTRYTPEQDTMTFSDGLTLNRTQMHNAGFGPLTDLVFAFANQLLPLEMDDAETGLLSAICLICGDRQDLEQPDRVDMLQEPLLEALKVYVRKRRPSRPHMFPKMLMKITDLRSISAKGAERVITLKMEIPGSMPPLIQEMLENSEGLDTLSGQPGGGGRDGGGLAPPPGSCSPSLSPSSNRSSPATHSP
Text: Each value means the degree of increase in the luciferase activity, which is expressed by referring the luciferase activity in the control lot as to 1, caused by the addition of the corresponding compound.
As a substitute for a plasmid containing a luciferase gene under the regulation in expression by RXR response element (pRXRL:RXRE-SV40 luciferase), and the RXRα expression plasmid (pRXRα); a plasmid containing a luciferase gene under the regulation in expression by RXR response element (pRARL:RASE-SV40 luciferase), and a […] (pRARα) were transferred into COS-1 cells. Transfectants with these plasmids and the compound of the present invention (concentration: 10^−4 to 10^−7 M) were added to the culture.
(§1) After sucking off the medium from the Petri dish, […] of a cultured cell lysing solution (25 mM Tris phosphate buffer (pH 7.8), 2 mM 1,2-diaminocyclohexane-N, N,N′,N′-tetraacetate, 10% glycerol, 1% Triton X-100) was added and the cells were peeled off with a rubber policeman and collected. After completely disrupting the cells by freezing and melting, the cells were centrifuged at 4° C. (15,000 rpm, 2 min) and the supernatant thus obtained was employed as a sample for measurement. To 20 ml of the supernatant, 100 ml of a luciferase substrate solution (2.14 mg of Co-A, 100 ml of 470 mM D-Luciferin, 200 ml of 530 mM ATP, 2 ml of DTT-Tricine buffer (pH 7.8)) was added and the fluorescence intensity was measured with a luminometer (ATTO Luminosensor AB-2000). To measure the β-galactosidase for determining the gene transfer efficiency, using a Luminescent β-galactosidase detection kit II (Clontech), fluorescence intensity was measured by a luminometer.

[2] = system: male ICR and ddY mice; assay: Serum total cholesterol lowering effect in mice; assay type: in vivo, mouse; conditions: 8 days; for Serum total cholesterol, % change: vs control; for Serum total cholesterol: Mean±SE
Text: Effect of serum cholesterol lowering agents varies among animals. Namely, some agents which are effective on a certain animal exert […] on others. For example, compactin, which is an HMG CoA reductase inhibitor, cannot lower the serum total cholesterol level when administered to rodents such as rat or mouse. This is because even though HMG CoA reductase is inhibited in the rodent liver, the enzyme is biosynthesized in an amount in excess of that for compensating the inhibition so that the inhibitory effect is negated. Accordingly, it is favorable to calibrate the effect of lowering serum total cholesterol level in as many animals as possible. Concerning the effect of the compounds of the present invention on the serum total cholesterol level, an assay was made with the use of mice. After adding these compounds to a standard powdery feed for rat and mouse, the resultant mixtures were molded into pellets and given for 8 days to male ICR and ddY mice aged 5 weeks. In the afternoon of the day 8, the blood of each animal was collected from the heart and the total cholesterol in the serum was determined. The doses were determined as the maximum dose, in which body weight gain was not suppressed after orally administering for 1 week, and as the ¼ dose thereof.
Each value is represented in Mean±SE (n=10). a) In the case of Compound-1, the control group consisted of 23 animals while the 0.04% and 0.01% groups each consisted of 12 animals.

[3] = biological target: T2, human RXRα (Homo sapiens, UniProt P19793); assay: RXR reporter gene (luciferase) transfer assay in COS-1 cells; assay type: cell-based; conditions: 2 × 10^−5 M
T2 construct: expressed in transfected cells; host or cells: COS-1 cells
T2 sequence (P19793 1-462): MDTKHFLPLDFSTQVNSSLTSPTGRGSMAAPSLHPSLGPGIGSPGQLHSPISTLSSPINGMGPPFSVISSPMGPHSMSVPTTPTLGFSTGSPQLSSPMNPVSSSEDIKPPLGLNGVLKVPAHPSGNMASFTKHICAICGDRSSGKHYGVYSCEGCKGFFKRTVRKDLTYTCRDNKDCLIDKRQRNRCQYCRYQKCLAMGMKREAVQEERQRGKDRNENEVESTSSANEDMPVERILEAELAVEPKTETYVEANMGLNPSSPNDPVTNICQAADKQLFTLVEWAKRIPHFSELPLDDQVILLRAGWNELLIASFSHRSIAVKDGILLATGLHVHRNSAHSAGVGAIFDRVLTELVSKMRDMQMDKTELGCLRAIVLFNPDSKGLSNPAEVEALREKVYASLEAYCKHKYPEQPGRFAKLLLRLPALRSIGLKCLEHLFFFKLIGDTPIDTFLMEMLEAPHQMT
Protocol: A plasmid containing a reporter gene regulated in expression by RXR response element and an RXRα expression plasmid were transferred into COS-1 cells. Then these cells were treated with the compounds of the present invention such as ascochlorin.
Plasmids were transferred into COS-1 cells. Gene transfer was carried out in a conventional manner with the use of Lipofect AMINE reagent (Life Technologies). 1×10^5 cells were dispersed in 2 ml of Dulbecco's modified Eagle medium (DMEM) containing 10% of fetal calf serum and poured into a 35 mm Petri dish. After culturing in a CO2 incubator for 17 hours, the medium was removed and the cells adhering to the Petri dish were washed with phosphate-buffered saline (PBS). Then gene transfer was carried out by using Lipofect AMINE reagent. Namely, 500 ml of a minimum serum medium OptiMEM (Life Technologies) containing […] of a plasmid containing a luciferase gene under the regulation in expression by RXR response element (PRXRL: RXRE-SV40 luciferase; a reporter gene plasmid wherein RXRE has been ligated to SV40 promoter and luciferase cDNA, under the regulation in expression thereby, has been located downstream thereof); […] of an RXRα expression plasmid (pRXRα; a plasmid wherein human RXRα CDNA has been ligated to the downstream of a cytomegalovirus promoter to express human RXRα in mammalian cells); and 2 mg of a β-galactosidase gene plasmid to assess the gene transfer ratio (pCH110; Pharmacia) were pre-mixed with 500 ml of OptiMEM containing 50 ml of Lipofec AMINE, and the resultant mixture was maintained at room temperature for 15 minutes. 100 ml of this liquid mixture was mixed with 400 ml of OptiMEM, and the medium mixture was divided to the Petri dish. After maintaining in a CO2 incubator at 37° C. for 3 hours, the gene transfer medium was sucked off from the Petri dish and DMEM medium containing a test substance and 10% of serum (activated carbon-treated) was added thereto followed by culturing at 37° C. for 20 hours. […] Further, dimethyl sulfoxide (final concentration: 0.1%) was added as the solvent for the test substance.
as §1

[4] = system: white rabbits; assay: Inhibition of arteriosclerosis in white rabbits fed high fat feed; conditions: 0.2% in high fat feed, 14 weeks
Protocol: Thus, a high fat feed was prepared by adding 10% of hardened coconut oil, 2% of cholesterol, 0.5% of bovine bile powder and 0.04% or 0.01% of ascochlorin to a powdery marketed standard white rabbit feed and molded the mixture into pellets. Separately, another high fat feed for the control group was prepared without using ascochlorin.
Twenty-four white rabbits weighing about 2 kg were divided into 4 groups at random. One of these groups was regarded as the control group, while the remaining 3 groups were respectively regarded as the clofibrate group, the ascochlorin 0.01% group and the ascochlorin 0.04% group at random. Then the experiment was carried out for 14 weeks.

[5] = system: male Wistar rats; assay: Sterol balance and bile acid excretion in rats; assay type: in vivo, rat; conditions: High cholesterol feed
Protocol: Feed-origin cholesterol and neutral sterol and acidic sterol in the feces of rats, to which the compounds of the present invention had been administered, were determined to monitor sterol balance and changes in the bile acid composition in feces. […] Further, the bile was sampled with the passage of time from rats having been subjected to cholangiostomy and bile acids thereof were determined. […] Male Wistar rats weighting about 250 g were divided into groups each having 6 to 8 animals. […] […] The feces were collected on the days 6 and 10. Then sterols were extracted therefrom in a conventional manner, acidic sterols and neutral sterols were determined. On the other hand, cholesterol in the feed was also determined so as to calculate the amount of feed-origin sterol.

In the case of `CC1=C(/C=C/C(C)=C/C=C/C(C)=C/C(=O)O)C(C)(C)CCC1` [All-trans retinoic acid, reference compound], the “degree of increase in the luciferase activity, RAR vector” value ([1]; 10^−7 M) is reported as 46.
With `COc1c(C=O)c(C)c(Cl)c(O)c1CC=C(C)C=CC1(C)C(C)CCC(=O)C1C` (stereo not shown) [Compound-10, 2-O-methylASC] the “Serum total cholesterol, % change” value ([2]; 0.01% in feed) was −30%, the Serum total cholesterol ([2]; 0.01% in feed) was 130 ± 4.5 mg/dL and the “Serum total cholesterol, % change” value ([2]; 0.04% in feed) was −34%. For the same molecule, the Serum total cholesterol ([2]; 0.04% in feed) was 122 ± 3.0 mg/dL, the “fold increase in luciferase reporter activity (control = 1)” value [3] was 1.45 and the “degree of increase in the luciferase activity, RXR vector” value ([3]; control lot = 1) was 58. For the same molecule, the “degree of increase in the luciferase activity, RAR vector” value ([1]; 2 × 10^−5 M) was 40.
For `CCOC(=O)C(C)(C)Oc1ccc(Cl)cc1` [clofibrate, reference compound], the “animals died from circulatory insufficiency due to obstruction in the coronary artery” value [4] was 2 animals among six.
`COc1c(Cl)c(C)c(C=O)c(OC)c1CC=C(C)C=CC1(C)C(C)CCC(=O)C1C` (stereo not shown) [compound 7, 2,4-dimethylASC] was tested, and the “Serum total cholesterol, % change” value ([2]; 0.04% in feed) was −31% and the Serum total cholesterol ([2]; 0.04% in feed) was 120 ± 5.9 mg/dL.
For `CC(/C=C/C1(C)C(C)CCC(=O)C1C)=C\Cc1c(O)c(C=O)c(C)c(Cl)c1OCCCC(=O)O` (stereo not shown) [compound 16], the Sterol balance ([5]; administration 5 days) was “+15.12 mg/day”, the “Sterol in feces, Acidic sterol” value ([5]; administration 5 days) was 8.67 mg/day and the “Sterol in feces, Cholesterol” value ([5]; administration 5 days) was 246.30 mg/day. The “Sterol in feces, Coprosterol” value ([5]; administration 5 days) was 41.05 mg/day, the excretion increase ([5]; administration 5 days) was 8.95 mg/day and the Sterol balance ([5]; administration 10 days) was “+28.52 mg/day”. For the same molecule, the “Sterol in feces, Acidic sterol” value ([5]; administration 10 days) was 9.93 mg/day, the “Sterol in feces, Cholesterol” value ([5]; administration 10 days) was 233.08 mg/day and the “Sterol in feces, Coprosterol” value ([5]; administration 10 days) was 58.27 mg/day. The excretion increase ([5]; administration 10 days) was 34.07 mg/day.
`CC(/C=C/[C@@]1(C)[C@H](C)CCC(=O)[C@@H]1C)=C\Cc1c(O)c(C=O)c(C)c(Cl)c1OC(=O)c1cccnc1` [compound 19, 4-O-nicotinoylASC] was tested, and the “Serum total cholesterol, % change” value ([2]; 0.01% in feed) was −13%, the Serum total cholesterol ([2]; 0.01% in feed) was 91 ± 4.5 mg/dL and the “Serum total cholesterol, % change” value ([2]; 0.04% in feed) was −16%. It also gave a Serum total cholesterol ([2]; 0.04% in feed) of 88 ± 3.0 mg/dL.
